{"source": "patent US20200147243A1", "about": "“LIGAND COMPOUND OF ALPHA7 NICOTINIC ACETYLCHOLINE RECEPTOR AND APPLICATION THEREOF” (BEIJING NORMAL UNIVERSITY, priority 2017, published 2020)", "test": "Experiment of brain region distribution", "conditions": "for Absorption, brain residual / Absorption, cerebellum / Absorption, corpus striatum / Absorption, cortex / Absorption, hippocampus / Absorption, superior and inferior colliculus / Absorption, thalamus: tail vein, female Kunming mice; for Tissue/cerebellum Ratio, corpus striatum / Tissue/cerebellum Ratio, cortex / Tissue/cerebellum Ratio, hippocampus / Tissue/cerebellum Ratio, superior and inferior colliculus / Tissue/cerebellum Ratio, thalamus: mouse brain", "note": "Values joined by “and” are separate entries in the source; they are usually repeats but may differ in a detail not shown here. Identical values can stand only once.", "data": [{"smiles": "O=C1c2cc(N3CCN4CCC3CC4)ccc2-c2cccc([18F])c21", "note": "[[^18F] II-15]", "values": [{"measurement": "Absorption, brain residual", "setting": "5 min", "result": "6.03 ± 0.23", "unit": "% ID/g wet weight"}, {"measurement": "Absorption, brain residual", "setting": "15 min", "result": "5.58 ± 0.50", "unit": "% ID/g wet weight"}, {"measurement": "Absorption, brain residual", "setting": "30 min", "result": "5.25 ± 0.80", "unit": "% ID/g wet weight"}, {"measurement": "Absorption, brain residual", "setting": "60 min", "result": "4.21 ± 0.22", "unit": "% ID/g wet weight"}, {"measurement": "Absorption, brain residual", "setting": "90 min", "result": "2.32 ± 0.26", "unit": "% ID/g wet weight"}, {"measurement": "Absorption, cerebellum", "setting": "5 min", "result": "5.83 ± 0.01", "unit": "% ID/g wet weight"}, {"measurement": "Absorption, cerebellum", "setting": "15 min", "result": "5.10 ± 0.35", "unit": "% ID/g wet weight"}, {"measurement": "Absorption, cerebellum", "setting": "30 min", "result": "4.53 ± 0.14", "unit": "% ID/g wet weight"}, {"measurement": "Absorption, cerebellum", "setting": "60 min", "result": "2.69 ± 0.10", "unit": "% ID/g wet weight"}, {"measurement": "Absorption, cerebellum", "setting": "90 min", "result": "1.53 ± 0.10", "unit": "% ID/g wet weight"}, {"measurement": "Tissue/cerebellum Ratio, corpus striatum", "setting": "5 min", "result": 1.20}, {"measurement": "Absorption, corpus striatum", "setting": "5 min", "result": "6.99 ± 0.31", "unit": "% ID/g wet weight"}, {"measurement": "Tissue/cerebellum Ratio, corpus striatum", "setting": "15 min", "result": 1.28}, {"measurement": "Absorption, corpus striatum", "setting": "15 min", "result": "6.55 ± 0.25", "unit": "% ID/g wet weight"}, {"measurement": "Tissue/cerebellum Ratio, corpus striatum", "setting": "30 min", "result": 1.85}, {"measurement": "Absorption, corpus striatum", "setting": "30 min", "result": "8.37±0.27", "unit": "% ID/g wet weight"}, {"measurement": "Tissue/cerebellum Ratio, corpus striatum", "setting": "60 min", "result": 1.87}, {"measurement": "Absorption, corpus striatum", "setting": "60 min", "result": "5.01 ± 0.31", "unit": "% ID/g wet weight"}, {"measurement": "Tissue/cerebellum Ratio, corpus striatum", "setting": "90 min", "result": "2.9 and 2.86"}, {"measurement": "Absorption, corpus striatum", "setting": "90 min", "result": "4.37 ± 0.18", "unit": "% ID/g wet weight"}, {"measurement": "Tissue/cerebellum Ratio, cortex", "setting": "5 min", "result": 1.24}, {"measurement": "Absorption, cortex", "setting": "5 min", "result": "7.24 ± 0.33", "unit": "% ID/g wet weight"}, {"measurement": "Tissue/cerebellum Ratio, cortex", "setting": "15 min", "result": 1.63}, {"measurement": "Absorption, cortex", "setting": "15 min", "result": "8.31 ± 0.22", "unit": "% ID/g wet weight"}, {"measurement": "Tissue/cerebellum Ratio, cortex", "setting": "30 min", "result": 2.07}, {"measurement": "Absorption, cortex", "setting": "30 min", "result": "9.39±0.24", "unit": "% ID/g wet weight"}, {"measurement": "Tissue/cerebellum Ratio, cortex", "setting": "60 min", "result": 2.29}, {"measurement": "Absorption, cortex", "setting": "60 min", "result": "6.14 ± 0.34", "unit": "% ID/g wet weight"}, {"measurement": "Tissue/cerebellum Ratio, cortex", "setting": "90 min", "result": "2.5 and 2.47"}, {"measurement": "Absorption, cortex", "setting": "90 min", "result": "3.77 ± 0.95", "unit": "% ID/g wet weight"}, {"measurement": "Tissue/cerebellum Ratio, hippocampus", "setting": "5 min", "result": 0.99}, {"measurement": "Absorption, hippocampus", "setting": "5 min", "result": "5.77 ± 0.17", "unit": "% ID/g wet weight"}, {"measurement": "Tissue/cerebellum Ratio, hippocampus", "setting": "15 min", "result": 1.20}, {"measurement": "Absorption, hippocampus", "setting": "15 min", "result": "6.12 ± 0.40", "unit": "% ID/g wet weight"}, {"measurement": "Tissue/cerebellum Ratio, hippocampus", "setting": "30 min", "result": 1.39}, {"measurement": "Absorption, hippocampus", "setting": "30 min", "result": "6.31±0.82", "unit": "% ID/g wet weight"}, {"measurement": "Tissue/cerebellum Ratio, hippocampus", "setting": "60 min", "result": 2.36}, {"measurement": "Absorption, hippocampus", "setting": "60 min", "result": "6.34 ± 0.72", "unit": "% ID/g wet weight"}, {"measurement": "Tissue/cerebellum Ratio, hippocampus", "setting": "90 min", "result": "3.6 and 3.63"}, {"measurement": "Absorption, hippocampus", "setting": "90 min", "result": "5.54 ± 0.64", "unit": "% ID/g wet weight"}, {"measurement": "Tissue/cerebellum Ratio, superior and inferior colliculus", "setting": "5 min", "result": 1.08}, {"measurement": "Absorption, superior and inferior colliculus", "setting": "5 min", "result": "6.32 ± 0.67", "unit": "% ID/g wet weight"}, {"measurement": "Tissue/cerebellum Ratio, superior and inferior colliculus", "setting": "15 min", "result": 1.28}, {"measurement": "Absorption, superior and inferior colliculus", "setting": "15 min", "result": "6.53 ± 0.58", "unit": "% ID/g wet weight"}, {"measurement": "Tissue/cerebellum Ratio, superior and inferior colliculus", "setting": "30 min", "result": 1.31}, {"measurement": "Absorption, superior and inferior colliculus", "setting": "30 min", "result": "5.93 ± 0.52", "unit": "% ID/g wet weight"}, {"measurement": "Tissue/cerebellum Ratio, superior and inferior colliculus", "setting": "60 min", "result": 1.45}, {"measurement": "Absorption, superior and inferior colliculus", "setting": "60 min", "result": "3.90 ± 0.36", "unit": "% ID/g wet weight"}, {"measurement": "Tissue/cerebellum Ratio, superior and inferior colliculus", "setting": "90 min", "result": 1.86}, {"measurement": "Absorption, superior and inferior colliculus", "setting": "90 min", "result": "2.85 ± 0.10", "unit": "% ID/g wet weight"}, {"measurement": "Tissue/cerebellum Ratio, thalamus", "setting": "5 min", "result": 0.98}, {"measurement": "Absorption, thalamus", "setting": "5 min", "result": "5.74 ± 0.69", "unit": "% ID/g wet weight"}, {"measurement": "Tissue/cerebellum Ratio, thalamus", "setting": "15 min", "result": 1.11}, {"measurement": "Absorption, thalamus", "setting": "15 min", "result": "5.66 ± 0.34", "unit": "% ID/g wet weight"}, {"measurement": "Tissue/cerebellum Ratio, thalamus", "setting": "30 min", "result": 1.28}, {"measurement": "Absorption, thalamus", "setting": "30 min", "result": "5.80 ± 0.47", "unit": "% ID/g wet weight"}, {"measurement": "Tissue/cerebellum Ratio, thalamus", "setting": "60 min", "result": 1.82}, {"measurement": "Absorption, thalamus", "setting": "60 min", "result": "4.89 ± 0.04", "unit": "% ID/g wet weight"}, {"measurement": "Tissue/cerebellum Ratio, thalamus", "setting": "90 min", "result": 2.10}, {"measurement": "Absorption, thalamus", "setting": "90 min", "result": "3.19 ± 0.26", "unit": "% ID/g wet weight"}]}]}
